# Measurements: US20140135319A1, “6-SUBSTITUTED IMIDAZOPYRAZINES FOR USE AS MPS-1 AND TKK INHIBITORS IN THE TREATMENT OF HYPERPROLIFERATIVE DISORDERS” (BAYER INTELLECTUAL PROPERTY GMBH, priority 2010, published 2014)
# pIC50: −log10 of the molar value.
# Biological target: T1, human kinase Mps-1 (Homo sapiens, UniProt P33981)
# T1 construct: N-terminally GST-tagged human full length recombinant Mps-1 kinase; GST (N); purchased Invitrogen, Karslruhe, Germany PV4071
# T1 sequence (P33981 1-857): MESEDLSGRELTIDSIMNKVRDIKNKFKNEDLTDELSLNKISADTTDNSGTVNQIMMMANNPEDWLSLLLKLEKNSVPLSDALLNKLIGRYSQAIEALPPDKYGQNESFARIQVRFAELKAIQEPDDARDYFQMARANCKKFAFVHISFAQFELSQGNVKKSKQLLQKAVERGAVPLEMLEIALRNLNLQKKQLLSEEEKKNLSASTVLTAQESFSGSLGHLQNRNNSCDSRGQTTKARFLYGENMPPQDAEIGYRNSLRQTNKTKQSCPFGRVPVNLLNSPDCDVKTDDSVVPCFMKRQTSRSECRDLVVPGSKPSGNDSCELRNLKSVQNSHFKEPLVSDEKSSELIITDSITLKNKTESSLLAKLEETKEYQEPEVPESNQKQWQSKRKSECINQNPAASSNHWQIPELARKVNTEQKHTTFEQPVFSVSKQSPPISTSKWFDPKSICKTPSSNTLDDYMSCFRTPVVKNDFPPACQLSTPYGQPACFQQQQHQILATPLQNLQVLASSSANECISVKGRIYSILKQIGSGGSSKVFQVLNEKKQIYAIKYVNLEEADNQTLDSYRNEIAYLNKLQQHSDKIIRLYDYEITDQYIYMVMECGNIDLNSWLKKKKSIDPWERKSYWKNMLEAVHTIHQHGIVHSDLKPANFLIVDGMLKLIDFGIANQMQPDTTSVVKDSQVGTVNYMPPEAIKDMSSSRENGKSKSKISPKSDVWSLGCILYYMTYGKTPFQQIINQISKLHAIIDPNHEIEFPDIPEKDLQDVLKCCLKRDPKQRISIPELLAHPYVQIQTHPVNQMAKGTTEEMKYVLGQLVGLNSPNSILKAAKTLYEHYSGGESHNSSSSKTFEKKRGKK
# Test: Mps-1 kinase assay (TR-FRET)
# Type: biochemical
# Conditions: GST-tagged human full length recombinant Mps-1; 10 μM ATP; 1 μM peptide substrate; 60 min at 22° C.
# Method: The human kinase Mps-1 phosphorylates a biotinylated substrate peptide. Detection of the phosphorylated product is achieved by time-resolved fluorescence resonance energy transfer (TR-FRET) from Europium-labelled anti-phospho-Serine/Threonine antibody as donor to streptavidin labelled with cross-linked allophycocyanin (SA-XLent) as acceptor. Compounds are tested for their inhibition of the kinase activity.
# N-terminally GST-tagged human full length recombinant Mps-1 kinase (purchased from Invitrogen, Karslruhe, Germany, cat. no PV4071) was used. As substrate for the kinase reaction a biotinylated peptide of the amino-acid sequence […] (C-terminus in amide form, purchased from Biosynthan GmbH, Berlin) was used.
# The concentration of Mps-1 in the assay was adjusted to the activity of the enzyme lot and was chosen appropriate to have the assay in the linear range, typical enzyme concentrations were in the range of about 1 nM (final conc. in the 5 μl assay volume).
# The resulting mixture was incubated 1 h at 22° C. to allow the binding of the phosphorylated peptide to the anti-phospho(Ser/Thr)-Europium-antibody. Subsequently the amount of phosphorylated substrate was evaluated by measurement of the resonance energy transfer from the Europium-labelled anti-phospho(Ser/Thr) antibody to the Streptavidin-XLent. Therefore, the fluorescence emissions at 620 nm and 665 nm after excitation at 350 nm was measured in a Viewlux TR-FRET reader (PerkinElmer LAS, Rodgau-Jügesheim, Germany). The “blank-corrected normalized ratio” (a Viewlux specific readout, similar to the traditional ratio of the emissions at 665 nm and at 622 nm, in which blank and Eu-donor crosstalk are subtracted from the 665 nm signal before the ratio is calculated) was taken as the measure for the amount of phosphorylated substrate.
row,SMILES,pIC50
1,"CC(C)CNc1nc(C2=CCNCC2)cn2c(-c3ccc(C(=O)NC4CC4)cc3)cnc12 [Example 1-26, N-cyclopropyl-4-{8-[(2-methylpropyl)amino]-6-(1,2,3,6-tetrahydro-pyridin-4-yl)imidazo [1,2-a]pyrazin-3-yl} benzamide]",8.54
2,"CC(C)CNc1nc(C2=CCN(C)CC2)cn2c(-c3ccc(C(=O)NC4CC4)cc3)cnc12 [Example 1-27, N-cyclopropyl-4-{8-[(2-methylpropyl)amino]-6-(1-methyl-1,2,3,6-tetra-hydropyridin-4-yl)imidazo[1,2-a]pyrazin-3-yl}benzamide]",8.12
3,"CC(C)CNc1nc(C2=CCSCC2)cn2c(-c3ccc(C(=O)NC4CC4)cc3)cnc12 [Example 1-28, N-cyclopropyl-4-{6-(3,6-dihydro-2H-thiopyran-4-yl)-8-[(2-methylpropyl)amino]imidazo[1,2-a]pyrazin-3-yl}benzamide]",8.70
4,"CC(C)CNc1nc(C2=CCOCC2)cn2c(-c3ccc(C(=O)NC4CC4)cc3)cnc12 [Example 1-29, N-cyclopropyl-4-{6-(3,6-dihydro-2H-pyran-4-yl)-8-[(2-methylpropyl)amino]imidazo[1,2-a]pyrazin-3-yl}benzamide]",8.85
5,"CC(C)CNc1nc(-c2ccn[nH]2)cn2c(-c3ccc(C(=O)NC4CC4)cc3)cnc12 [Example 1-30, N-cyclopropyl-4-{8-[(2-methylpropyl)amino]-6-(1H-pyrazol-5-yl)imidazo[1,2-a]pyrazin-3-yl}benzamide]",8.77
6,"CC(C)CNc1nc(-c2ccc(CN(C)C)cc2)cn2c(-c3ccc(C(=O)NC4CC4)cc3)cnc12 [Example 1-31, N-cyclopropyl-4-(6-{4-[(dimethylamino)methyl]phenyl}-8-[(2-methyl-propyl)amino]imidazo [1,2-a]pyrazin-3-yl) benzamide]",8.48
7,"CC(C)CNc1nc(-c2ccncc2)cn2c(-c3ccc(C(=O)NC4CC4)c(Cl)c3)cnc12 [Example 1-32, 2-chloro-N-cyclopropyl-4-{8-[(2-methylpropyl)amino]-6-(pyridin-4-yl)imidazo[1,2-a]pyrazin-3-yl}benzamide]",8.21
8,"CC(C)CNc1nc(-c2ccoc2)cn2c(-c3ccc(C(=O)NC4CC4)c(Cl)c3)cnc12 [Example 1-33, 2-chloro-N-cyclopropyl-4-{6-(furan-3-yl)-8-[(2-methylpropyl)amino]imidazo[1,2-a]pyrazin-3-yl}benzamide]",7.91
9,"CC(C)CNc1nc(-c2ccn[nH]2)cn2c(-c3ccc(C(=O)NC4CC4)c(Cl)c3)cnc12 [Example 1-34, 2-chloro-N-cyclopropyl-4-{8-[(2-methylpropyl)amino]-6-(1H-pyrazol-5-yl)imidazo[1,2-a]pyrazin-3-yl}benzamide]",7.45
10,"CC(C)CNc1nc(C2=CCOCC2)cn2c(-c3ccc(C(=O)NC4CC4)c(Cl)c3)cnc12 [Example 1-35, 2-chloro-N-cyclopropyl-4-{6-(3,6-dihydro-2H-pyran-4-yl)-8-[(2-methyl-propyl)amino]imidazo [1,2-a]pyrazin-3-yl} benzamide]",7.94
11,"O=C(NC1CC1)c1ccc(-c2cnc3c(NCCC(F)(F)F)nc(-c4ccncc4)cn23)cc1Cl [Example 1-36, 2-chloro-N-cyclopropyl-4-{6-(pyridin-4-yl)-8-[(3,3,3-trifluoropropyl)amino]imidazo[1,2-a]pyrazin-3-yl}benzamide]",8.23
12,"O=C(NC1CC1)c1ccc(-c2cnc3c(NCCC(F)(F)F)nc(-c4ccoc4)cn23)cc1Cl [Example 1-37, 2-chloro-N-cyclopropyl-4-{6-(furan-3-yl)-8-[(3,3,3-trifluoropropyl)amino]imidazo[1,2-a]pyrazin-3-yl}benzamide]",8.09
13,"O=C(NC1CC1)c1ccc(-c2cnc3c(NCCC(F)(F)F)nc(-c4ccn[nH]4)cn23)cc1Cl [Example 1-38, 2-chloro-N-cyclopropyl-4-{6-(1H-pyrazol-5-yl)-8-[(3,3,3-trifluoropropyl)amino]imidazo[1,2-a]pyrazin-3-yl}benzamide]",7.85
14,"O=C(NC1CC1)c1ccc(-c2cnc3c(NCCC(F)(F)F)nc(C4=CCOCC4)cn23)cc1Cl [Example 1-39, 2-chloro-N-cyclopropyl-4-{6-(3,6-dihydro-2H-pyran-4-yl)-8-[(3,3,3-trifluoropropyl)amino]imidazo[1,2-a]pyrazin-3-yl}benzamide]",7.91
15,"CC(C)(O)CNc1nc(-c2ccncc2)cn2c(-c3ccc(C(=O)NC4CC4)c(Cl)c3)cnc12 [Example 1-40, 2-chloro-N-cyclopropyl-4-{8-[(2-hydroxy-2-methylpropyl)amino]-6-(pyridin-4-yl)imidazo [1,2-a]pyrazin-3-yl} benzamide]",7.24
16,"CC(C)(O)CNc1nc(-c2ccoc2)cn2c(-c3ccc(C(=O)NC4CC4)c(Cl)c3)cnc12 [Example 1-41, 2-chloro-N-cyclopropyl-4-{6-(furan-3-yl)-8-[(2-hydroxy-2-methylpropyl)amino]imidazo[1,2-a]pyrazin-3-yl}benzamide]",7.26
17,"O=C(NC1CC1)c1ccc(-c2cnc3c(NCC4CCCO4)nc(-c4ccncc4)cn23)cc1Cl (stereo not drawn) [Example 1-42, 2-chloro-N-cyclopropyl-4-{6-(pyridin-4-yl)-8-[(tetrahydrofuran-2-ylmethyl)amino]imidazo [1,2-a]pyrazin-3-yl} benzamide]",7.39
18,"O=C(NC1CC1)c1ccc(-c2cnc3c(NCC4CCCO4)nc(-c4ccoc4)cn23)cc1Cl (stereo not drawn) [Example 1-43, 2-chloro-N-cyclopropyl-4-{6-(furan-3-yl)-8-[(tetrahydrofuran-2-ylmethyl)amino]imidazo [1,2-a]pyrazin-3-yl} benzamide]",7.37
19,"O=C(NC1CC1)c1ccc(-c2cnc3c(NCC4CCCO4)nc(-c4ccn[nH]4)cn23)cc1Cl (stereo not drawn) [Example 1-44, 2-chloro-N-cyclopropyl-4-{6-(1H-pyrazol-5-yl)-8-[(tetrahydrofuran-2-ylmethyl)amino]imidazo [1,2-a]pyrazin-3-yl} benzamide]",6.90
20,"O=C(NC1CC1)c1ccc(-c2cnc3c(NCC4CCCO4)nc(C4=CCOCC4)cn23)cc1Cl (stereo not drawn) [Example 1-45, 2-chloro-N-cyclopropyl-4-{6-(3,6-dihydro-2H-pyran-4-yl)-8-[(tetrahydro-furan-2-ylmethyl)amino]imidazo[1,2-a]pyrazin-3-yl}benzamide]",6.98
21,"Cn1nccc1CNc1nc(-c2ccncc2)cn2c(-c3ccc(C(=O)NC4CC4)c(Cl)c3)cnc12 [Example 1-46, 2-chloro-N-cyclopropyl-4-[8-{[(1-methyl-1H-pyrazol-5-yl)methyl]amino}-6-(pyridin-4-yl)imidazo[1,2-a]pyrazin-3-yl]benzamide]",7.49
22,"Cn1nccc1CNc1nc(-c2ccoc2)cn2c(-c3ccc(C(=O)NC4CC4)c(Cl)c3)cnc12 [Example 1-47, 2-chloro-N-cyclopropyl-4-[6-(furan-3-yl)-8-{[(1-methyl-1H-pyrazol-5-yl)methyl]amino}imidazo [1,2-a]pyrazin-3-yl] benzamide]",7.59
23,"Cn1nccc1CNc1nc(-c2ccn[nH]2)cn2c(-c3ccc(C(=O)NC4CC4)c(Cl)c3)cnc12 [Example 1-48, 2-chloro-N-cyclopropyl-4-[8-{[(1-methyl-1H-pyrazol-5-yl)methyl]amino}-6-(1H-pyrazol-5-yl)imidazo[1,2-a]pyrazin-3-yl]benzamide]",7.37
24,"CC(C)CNc1nc(-c2ccncc2)cn2c(-c3ccc(C(=O)NC4CC4)c(F)c3)cnc12 [Example 1-49, N-cyclopropyl-2-fluoro-4-{8-[(2-methylpropyl)amino]-6-(pyridin-4-yl)imidazo[1,2-a]pyrazin-3-yl}benzamide]",8.43
